pKi: −log10 of the molar value.
What follows are compounds tested against T1, human CB2 receptors (Homo sapiens, UniProt P34972) (assay: Affinity for the human CB2 cannabinoid receptors: inhibition of [3H]-CP55940 binding to transfected CHO-K1 cell membranes). Conditions: [3H]-CP55940 (1 nM), CHO-K1 membranes expressing human CB2; Cheng-Prusoff corrected; x = Ki below 50 nM.
T1 construct: expressed in transfected cells
Method: The affinity of the compounds of the present invention for the different sub-types of cannabinoid receptors was measured according to procedures analogous to those described hereafter for the human CB2 receptor.
Study of the Affinity of the Compounds for the Human CB2 Cannabinoid Receptors
The affinity of the compounds of the invention for the human CB2 receptors is determined by measuring the inhibition of the binding of [^3H]-CP55940 to transfected CHO-K1 cell membrane preparations.
The CHO-K1 cells expressing the human CB2 receptors in a stable fashion are cultured in an RPMI 1640 medium containing 10% foetal calf serum, 2 mM of glutamine, 100 U/ml of penicillin, 0.1 mg/ml of streptomycin and 0.5 mg/ml of G418. The cells are collected with 0.5 mM of EDTA and centrifuged at 500 g for 5 minutes at 4° C. The pellet is re-suspended in phosphate buffered saline medium (PBS) and centrifuged at 500 g for 5 minutes at 4° C. The pellet is re-suspended in a Tris 50 mM buffer medium at pH 7.4 and centrifuged at 500 g for 5 minutes at 4° C. The cells are lysed by sonication and centrifuged at 39,000 g for 10 minutes at 4° C. The pellet is re-suspended in the Tris 50 mM buffer medium at pH 7.4 and centrifuged at 50,000 g for 10 minutes at 4° C. The membranes obtained in this last pellet are stored at −80° C.
Measurement of the competitive inhibition of the binding of the [^3H]-CP55940 to the CB2 receptors is carried out in duplicate using 96-well polypropylene plates. The cell membranes (10 μg of proteins/well) are incubated with the [^3H]-CP55940 (1 nM) for 60 minutes at 25° C. in a Tris-HCl 50 mM buffer medium, pH 7.4, comprising 0.1% bovine serum albumin (BSA), 5 mM of MgCl2, and 50 μg/ml of bacitracin.
The bound [^3H]-CP55940 is separated from the free [^3H]-CP55940 by filtration through GF/C glass fibre filter plates (Unifilter, Packard) pre-impregnated with 0.1% polyethylenimine (P.E.I.), using a Filtermate 196 (Packard). The filters are washed with Tris-HCl 50 mM buffer, pH 7.4 at 0-4° C. and the radioactivity present is determined using a counter (Packard Top Count).
The specific binding is obtained by subtracting the non-specific binding (determined in the presence of 0.1 μM of WIN55212-2 from the total binding). The data are analyzed by computer-assisted non-linear regression (MDL). For each test, a Cheng-Prusoff correction is made in order to convert the IC50 to the inhibition constant, Ki.
where [L] is the concentration of the radioligand used in the test and Kd is the radioligand equilibrium dissociation constant.

T1 sequence (P34972 whole entry): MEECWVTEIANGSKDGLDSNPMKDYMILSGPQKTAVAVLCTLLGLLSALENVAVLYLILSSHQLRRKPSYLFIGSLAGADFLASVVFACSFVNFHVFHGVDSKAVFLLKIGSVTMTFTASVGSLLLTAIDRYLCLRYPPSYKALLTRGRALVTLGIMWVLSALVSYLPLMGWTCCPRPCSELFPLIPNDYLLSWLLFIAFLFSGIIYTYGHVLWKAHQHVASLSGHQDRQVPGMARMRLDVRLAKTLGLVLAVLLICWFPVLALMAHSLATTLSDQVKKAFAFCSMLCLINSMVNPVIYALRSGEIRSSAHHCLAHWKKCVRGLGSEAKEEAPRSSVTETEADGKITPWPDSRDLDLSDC

pKi, > 7.30:
CN1CCN(c2ccc(CN3C(=O)C(C)(C)Cn4c3nc3ccccc3c4=O)cc2)CC1 [Example 37]
CN1CCN(c2ccc(CN3C(=O)C(c4ccc5ccccc5c4)n4c3nc3ccccc3c4=O)cc2)CC1 (stereo not shown) [Example 8]
CN1CCN(c2ccc(CN3C(=O)C4(Cc5ccccc5C4)n4c3nc3ccccc3c4=O)cc2)CC1 [Example 17]
CN1CCN(c2ccc(CN3C(=O)CC(C4CCCCC4)n4c3nc3ccccc3c4=O)cc2)CC1 (stereo not shown) [Example 45]
CC(C)CC1CC(=O)N(Cc2ccc(N3CCN(C)CC3)cc2)c2nc3ccccc3c(=O)n21 (stereo not shown) [Example 43]
CN1CCN(c2ccc(CN3C(=O)CC(c4ccccc4)n4c3nc3ccccc3c4=O)cc2)CC1 (stereo not shown) [Example 44]
CN1CCN(c2ccc(CN3C(=O)C(CCC4CCCCC4)n4c3nc3ccccc3c4=O)cc2)CC1 (stereo not shown) [Example 4]
CN1CCN(c2ccc(CN3C(=O)C(CC4CCCCC4)n4c3nc3ccccc3c4=O)cc2)CC1 (stereo not shown) [Example 1]
CCCCC1(CCCC)C(=O)N(Cc2ccc(N3CCN(C)CC3)cc2)c2nc3ccccc3c(=O)n21 [Example 31]
CN1CCN(c2ccc(CN3C(=O)CC(Cc4ccccc4)n4c3nc3ccccc3c4=O)cc2)CC1 (stereo not shown) [Example 46]
CN1CCN(c2ccc(CN3C(=O)C(C4CCCCC4)n4c3nc3ccccc3c4=O)cc2)CC1 (stereo not shown) [Example 5]
CN1CCN(c2ccc(CN3C(=O)C(Cc4ccccc4)n4c3nc3ccccc3c4=O)cc2)CC1 (stereo not shown) [Example 12]
CN1CCN(c2ccc(CN3C(=O)CC(CCc4ccccc4)n4c3nc3ccccc3c4=O)cc2)CC1 (stereo not shown) [Example 48]
CN1CCN(c2ccc(CN3C(=O)CC(C)(C)n4c3nc3ccccc3c4=O)cc2)CC1 [Example 35]
CC(C)C[C@H]1CC(=O)N(Cc2ccc(N3CCN(C)CC3)cc2)c2nc3ccccc3c(=O)n21 [Example 38]
CN1CCN(c2ccc(CN3C(=O)C(c4ccc(-c5ccccc5)cc4)n4c3nc3ccccc3c4=O)cc2)CC1 (stereo not shown) [Example 2]
